From patent US11298367B2, “Prodrugs of substituted triazole derivatives and uses thereof” (Bayer Aktiengesellschaft, priority 2017, dated 2022)

Key:
human V1a receptor = molecular target: T1, human V1a receptor (Homo sapiens, UniProt P37288); assay: Cellular in vitro assay for vasopressin receptor activity (V1a, aequorin luminescence); type: cell-based; conditions: for IC50: CHO cell line with human V1a receptor, [Arg8]-vasopressin at EC50, values are for the prodrug as such, read-out: IC50 hV1a; for ratio IC50 hV2/hV1a: selectivity ratio hV2/hV1a
T1 construct: expressed in transfected cells; host or cells: CHO K1 (Chinese hamster ovary), also stably transfected with a modified aequorin
T1 sequence (P37288 whole entry): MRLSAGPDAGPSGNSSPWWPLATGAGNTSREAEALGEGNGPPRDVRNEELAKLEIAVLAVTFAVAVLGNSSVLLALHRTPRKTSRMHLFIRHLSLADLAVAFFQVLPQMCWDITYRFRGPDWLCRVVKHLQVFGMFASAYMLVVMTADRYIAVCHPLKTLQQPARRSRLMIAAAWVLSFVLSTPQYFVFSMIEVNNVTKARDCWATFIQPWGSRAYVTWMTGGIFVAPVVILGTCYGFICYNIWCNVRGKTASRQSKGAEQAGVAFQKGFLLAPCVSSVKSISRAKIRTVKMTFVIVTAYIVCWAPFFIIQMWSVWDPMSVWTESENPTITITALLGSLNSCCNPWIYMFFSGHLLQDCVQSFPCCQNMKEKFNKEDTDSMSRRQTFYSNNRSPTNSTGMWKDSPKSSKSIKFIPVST
Procedure: (§1) B-1. Cellular In Vitro Assay for Determining Vasopressin Receptor Activity
(§2) The identification of agonists and antagonists of the V1a and V2 vasopressin receptors from humans, rats and dogs as well as the quantification of the activity of the compounds of the invention is carried out using recombinant cell lines. These cell lines originally derive from a hamster's ovary epithelial cell (Chinese Hamster Ovary, CHO K1, ATCC: American Type Culture Collection, Manassas, Va. 20108, USA). The test cell lines constitutively express the human, rat or dog V1a or V2 receptors. In case of the Gaq-coupled V1a receptors, cells are also stably transfected with a modified form of the calcium-sensitive photoproteins aequorin (human and rat V1a) or obelin (dog V1a), which, after reconstitution with the cofactor coelenterazine, emit light when there are increases in free calcium concentrations [Rizzuto R, Simpson A W, Brini M, Pozzan T, Nature 358, 325-327 (1992); Illarionov B A, Bondar V S, Illarionova V A, Vysotski E S, Gene 153 (2), 273-274 (1995)]. The resulting vasopressin receptor cells react to stimulation of the recombinantly expressed Via receptors by intracellular release of calcium ions, which can be quantified by the resulting photoprotein luminescence. The Gs-coupled V2 receptors are stably transfected into cell lines expressing the gene for firefly luciferase under control of a CRE-responsible promoter. Activation of V2 receptors induces the activation of the CRE-responsive promoter via cAMP increase, thereby inducing the expression of firefly luciferase. The light emitted by photoproteins of V1a cell lines as well as the light emitted by firefly luciferase of V2 cell lines corresponds to the activation or inhibition of the respective vasopressin receptor. The bioluminescence of the cell lines is detected using a suitable luminometer [Milligan G, Marshall F, Rees S, Trends in Pharmacological Sciences 17, 235-237 (1996)].
Vasopressin V1a Receptor Cell Lines:
On the day before the assay, the cells are plated out in culture medium (DMEM/F12, 2% FCS, 2 mM glutamine, 10 mM HEPES, 5 μg/ml coelenterazine) in 384-well microtiter plates and kept in a cell incubator (96% humidity, 5% v/v CO2, 37C). On the day of the assay, test compounds in various concentrations are placed for 10 minutes in the wells of the microtiter plate before the agonist [Arg^8]-vasopressin at EC50 concentration is added. The resulting light signal is measured immediately in a luminometer.
(§3) Table 1A below lists individual IC50 values for the compounds of the invention (including racemic mixtures as well as separated enantiomers) that were obtained from cell lines transfected with the human V1a or V2 receptor. This means these IC50 values are the values for the prodrug and not for the underlying respective drug as the prodrug is mainly stable under the assay conditions.

human V2 receptor = molecular target: T2, human V2 receptor (Homo sapiens, UniProt P30518); assay: Cellular in vitro assay for vasopressin receptor activity (V2, CRE-luciferase); type: cell-based; conditions: CHO cell line with human V2 receptor, [Arg8]-vasopressin at EC50; values are for the prodrug as such; read-out: IC50 hV2
T2 construct: expressed in transfected cells; host or cells: CHO K1 cells expressing firefly luciferase under a CRE-responsive promoter
T2 sequence (P30518 whole entry): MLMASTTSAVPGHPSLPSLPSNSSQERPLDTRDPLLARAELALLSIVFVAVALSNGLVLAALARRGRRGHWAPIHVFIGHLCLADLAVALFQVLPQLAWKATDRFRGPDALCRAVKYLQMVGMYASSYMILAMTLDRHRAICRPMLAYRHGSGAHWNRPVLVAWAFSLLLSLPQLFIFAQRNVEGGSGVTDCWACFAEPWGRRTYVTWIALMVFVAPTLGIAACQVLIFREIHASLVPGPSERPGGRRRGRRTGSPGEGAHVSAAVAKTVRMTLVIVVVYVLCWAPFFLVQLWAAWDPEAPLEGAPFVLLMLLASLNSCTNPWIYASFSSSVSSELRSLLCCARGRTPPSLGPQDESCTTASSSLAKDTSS
Procedure: as §1, §2
Vasopressin V2 Receptor Cell Lines:
On the day before the assay, the cells are plated out in culture medium (DMEM/F12, 2% FCS, 2 mM glutamine, 10 mM HEPES) in 384-well microtiter plates and kept in a cell incubator (96% humidity, 5% v/v CO2, 37C). On the day of the assay, test compounds in various concentrations and the agonist [Arg^8]-vasopressin at EC50 concentration are added together to the wells, and plates are incubated for 3 hours in a cell incubator. Upon addition of the cell lysis reagent Triton™ and the substrate luciferin, luminescence of firefly luciferase is measured in a luminometer.
as §3

NC(=O)c1nc(Cn2nc(-c3ccc(Cl)cc3)n(C[C@H](OP(=O)([O-])O)C(F)(F)F)c2=O)nn1-c1ncccc1C(F)(F)F.[K+] [Example 2, Potassium (2S)-3-[1-({5-carbamoyl-1-[3-(trifluoromethyl)pyridin-2-yl]-1H-1,2,4-triazol-3-yl}-methyl)-3-(4-chlorophenyl)-5-oxo-1,5-dihydro-4H-1,2,4-triazol-4-yl]-1,1,1-trifluoropropan-2-yl Hydrogen Phosphate]
IC50 (human V1a receptor): 39.5 nM
ratio IC50 hV2/hV1a (human V1a receptor; Phosphate): 15.7
IC50 (human V2 receptor): 620 nM

NC(=O)c1nc(Cn2nc(-c3ccc(Cl)cc3)n(C[C@H](OP(=O)([O-])O)C(F)(F)F)c2=O)nn1-c1ncccc1C(F)(F)F.[K+] [Example 3, Potassium (2S)-3-[1-({5-carbamoyl-1-[3-(trifluoromethyl)pyridin-2-yl]-1H-1,2,4-triazol-3-yl}-methyl)-3-(4-chlorophenyl)-5-oxo-1,5-dihydro-4H-1,2,4-triazol-4-yl]-1,1,1-trifluoropropan-2-yl Hydrogen Phosphate]
IC50 (human V1a receptor): 6.15 nM
ratio IC50 hV2/hV1a (human V1a receptor; Phosphate): 20.0
IC50 (human V2 receptor): 123 nM

NC(=O)c1nc(Cn2nc(-c3ccc(Cl)cc3)n(C[C@H](OP(=O)([O-])O)C(F)(F)F)c2=O)nn1-c1ncccc1C(F)(F)F.[Na+] [Example 5, Sodium (2S)-3-[1-({5-carbamoyl-1-[3-(trifluoromethyl)pyridin-2-yl]-1H-1,2,4-triazol-3-yl}-methyl)-3-(4-chlorophenyl)-5-oxo-1,5-dihydro-4H-1,2,4-triazol-4-yl]-1,1,1-trifluoropropan-2-yl Hydrogen Phosphate]
IC50 (human V1a receptor): 5.05 nM
ratio IC50 hV2/hV1a (human V1a receptor; Phosphate): 16.8
IC50 (human V2 receptor): 85 nM

NC(=O)c1nc(Cn2nc(-c3ccc(Cl)cc3)n(C[C@H](OP(=O)([O-])[O-])C(F)(F)F)c2=O)nn1-c1ncccc1C(F)(F)F.[Ca+2] [Example 8, Calcium (2S)-3-[1-({5-carbamoyl-1-[3-(trifluoromethyl)pyridin-2-yl]-1H-1,2,4-triazol-3-yl}-methyl)-3-(4-chlorophenyl)-5-oxo-1,5-dihydro-4H-1,2,4-triazol-4-yl]-1,1,1-trifluoropropan-2-yl Phosphate]
IC50 (human V1a receptor): 17 nM
ratio IC50 hV2/hV1a (human V1a receptor): 8.5
IC50 (human V2 receptor): 145 nM

NC(=O)c1nc(Cn2nc(-c3ccc(Cl)cc3)n(C[C@H](OP(=O)([O-])O)C(F)(F)F)c2=O)nn1-c1ccccc1C(F)(F)F.[K+] [Example 11, Potassium (2S)-3-[1-({5-carbamoyl-1-[2-(trifluoromethyl)phenyl]-1H-1,2,4-triazol-3-yl}methyl)-3-(4-chlorophenyl)-5-oxo-1,5-dihydro-4H-1,2,4-triazol-4-yl]-1,1,1-trifluoropropan-2-yl Hydrogen Phosphate]
IC50 (human V1a receptor): 40.5 nM
ratio IC50 hV2/hV1a (human V1a receptor; Phosphate): 0.9
IC50 (human V2 receptor): 37 nM

NC(=O)c1nc(Cn2nc(-c3ccc(Cl)cc3)n(C[C@H](OP(=O)([O-])O)C(F)(F)F)c2=O)nn1-c1ccccc1C(F)(F)F.[K+] [Example 12, Potassium (2S)-3-[1-({5-carbamoyl-1-[2-(trifluoromethyl)phenyl]-1H-1,2,4-triazol-3-yl}methyl)-3-(4-chlorophenyl)-5-oxo-1,5-dihydro-4H-1,2,4-triazol-4-yl]-1,1,1-trifluoropropan-2-yl Hydrogen Phosphate]
IC50 (human V1a receptor): 16.5 nM
ratio IC50 hV2/hV1a (human V1a receptor; Phosphate): 1.5
IC50 (human V2 receptor): 24 nM

NC(=O)c1nc(Cn2nc(-c3ccc(Cl)cc3)n(C[C@H](OP(=O)([O-])O)C(F)(F)F)c2=O)nn1-c1ccccc1C(F)(F)F.[Na+] [Example 13, Sodium (2S)-3-[1-({5-carbamoyl-1-[2-(trifluoromethyl)phenyl]-1H-1,2,4-triazol-3-yl}methyl)-3-(4-chlorophenyl)-5-oxo-1,5-dihydro-4H-1,2,4-triazol-4-yl]-1,1,1-trifluoropropan-2-yl Hydrogen Phosphate]
IC50 (human V1a receptor): 19 nM
ratio IC50 hV2/hV1a (human V1a receptor; Phosphate): 1.4
IC50 (human V2 receptor): 26.5 nM
